From article PMC13385394, “Cryo-EM Structure of the TRPC1/5 Heteromer Enables Design of Antidepressant and Anxiolytic Drug with Reduced Side Effects” (Nature Communications, 2026)
Where “and” joins values, the source holds several entries; their conditions need not be identical. Equal entries are not always repeated. Where two headings read alike, the source gives them in different places.

How the values were obtained:
[1] = tested on: lateral amygdala (LA) neurons; assay: Current-clamp recordings in acute brain slices, CCK-4-induced hyperexcitability; format: cell-based, mouse; settings: ex vivo brain slices
Protocol: Coronal brain slices (300 μm) were prepared from male C57BL/6 J mice (8–10 weeks, Jinan Pengyue Laboratory Animal Breeding Co., Ltd., Jinan, China) and initially incubated in ACSF-1.5 at 32 for 30 min, followed by an additional 1 h at room temperature. Subsequently, slices were transferred to oxygenated artificial cerebrospinal fluid (ACSF) containing the test compound and incubated for 2–3 h before being placed in a recording chamber perfused with ACSF-1.5.
Electrophysiological recordings were performed under an Olympus microscope equipped with a 40× long-working-distance objective. Recording electrodes (3-4 MΩ) were pulled from borosilicate glass capillaries. […] After achieving a gigaseal in voltage-clamp mode at −70 mV and establishing whole-cell configuration with series resistance compensation, recordings were switched to current-clamp mode. Step currents ranging from −60 pA to 300 pA (Δ = 20 pA, 500 ms duration, 3 s interval) were applied to evoke action potentials. […] Intracellular solution (mM): 140 K-gluconate, 2 MgCl₂, 8 KCl, 10 HEPES, 2 Na₂-ATP, 0.2 Na₂-GTP; pH adjusted to 7.2 with KOH.
(d) Quantification of action potential
Data are presented as mean ± SEM (n = 11 neurons

[2] = Pharmacokinetics in mouse after p.o. and i.v. administration; format: in vivo; settings: for AUC(0-inf): read-out: AUCINF_obs; for clearance: read-out: CL_obs; for MRT inf: read-out: MRTINF_obs
TRPC1/5 = molecular target: T1, TRPC1/5 (Homo sapiens, UniProt P48995+Q9UL62); assay: Calcium flux assay (Calcium 5 kit, EA 100 nM), hTRPC1 + hTRPC5 in HEK293T cells; format: cell-based; settings: calcium flux screening, 10 μM
T1 construct: Full-length, non-tagged hTRPC1 and hTRPC5 constructs are used for calcium flux assays; expressed in transfected cells; host or cells: HEK293T
T1 sequence (P48995 whole entry): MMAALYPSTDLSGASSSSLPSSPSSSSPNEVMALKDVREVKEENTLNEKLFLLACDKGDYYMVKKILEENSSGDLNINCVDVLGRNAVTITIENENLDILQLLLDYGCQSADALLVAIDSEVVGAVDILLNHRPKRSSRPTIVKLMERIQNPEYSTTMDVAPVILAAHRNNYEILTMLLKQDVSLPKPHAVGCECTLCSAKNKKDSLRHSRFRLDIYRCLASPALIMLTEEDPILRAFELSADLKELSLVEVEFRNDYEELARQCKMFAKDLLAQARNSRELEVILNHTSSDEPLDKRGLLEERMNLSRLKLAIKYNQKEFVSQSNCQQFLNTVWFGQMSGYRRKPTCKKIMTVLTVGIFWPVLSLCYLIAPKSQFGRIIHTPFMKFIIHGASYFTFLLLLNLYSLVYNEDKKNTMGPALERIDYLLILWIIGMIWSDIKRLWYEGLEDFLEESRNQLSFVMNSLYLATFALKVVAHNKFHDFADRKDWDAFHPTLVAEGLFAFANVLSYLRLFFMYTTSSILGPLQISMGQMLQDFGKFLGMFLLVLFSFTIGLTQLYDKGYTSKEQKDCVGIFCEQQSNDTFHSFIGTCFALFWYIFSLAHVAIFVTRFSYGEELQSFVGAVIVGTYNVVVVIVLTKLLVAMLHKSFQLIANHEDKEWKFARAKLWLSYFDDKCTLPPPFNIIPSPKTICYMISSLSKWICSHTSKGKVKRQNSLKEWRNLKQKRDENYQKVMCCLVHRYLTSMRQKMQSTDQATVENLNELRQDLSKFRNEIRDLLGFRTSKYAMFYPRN
T1 sequence (Q9UL62 whole entry): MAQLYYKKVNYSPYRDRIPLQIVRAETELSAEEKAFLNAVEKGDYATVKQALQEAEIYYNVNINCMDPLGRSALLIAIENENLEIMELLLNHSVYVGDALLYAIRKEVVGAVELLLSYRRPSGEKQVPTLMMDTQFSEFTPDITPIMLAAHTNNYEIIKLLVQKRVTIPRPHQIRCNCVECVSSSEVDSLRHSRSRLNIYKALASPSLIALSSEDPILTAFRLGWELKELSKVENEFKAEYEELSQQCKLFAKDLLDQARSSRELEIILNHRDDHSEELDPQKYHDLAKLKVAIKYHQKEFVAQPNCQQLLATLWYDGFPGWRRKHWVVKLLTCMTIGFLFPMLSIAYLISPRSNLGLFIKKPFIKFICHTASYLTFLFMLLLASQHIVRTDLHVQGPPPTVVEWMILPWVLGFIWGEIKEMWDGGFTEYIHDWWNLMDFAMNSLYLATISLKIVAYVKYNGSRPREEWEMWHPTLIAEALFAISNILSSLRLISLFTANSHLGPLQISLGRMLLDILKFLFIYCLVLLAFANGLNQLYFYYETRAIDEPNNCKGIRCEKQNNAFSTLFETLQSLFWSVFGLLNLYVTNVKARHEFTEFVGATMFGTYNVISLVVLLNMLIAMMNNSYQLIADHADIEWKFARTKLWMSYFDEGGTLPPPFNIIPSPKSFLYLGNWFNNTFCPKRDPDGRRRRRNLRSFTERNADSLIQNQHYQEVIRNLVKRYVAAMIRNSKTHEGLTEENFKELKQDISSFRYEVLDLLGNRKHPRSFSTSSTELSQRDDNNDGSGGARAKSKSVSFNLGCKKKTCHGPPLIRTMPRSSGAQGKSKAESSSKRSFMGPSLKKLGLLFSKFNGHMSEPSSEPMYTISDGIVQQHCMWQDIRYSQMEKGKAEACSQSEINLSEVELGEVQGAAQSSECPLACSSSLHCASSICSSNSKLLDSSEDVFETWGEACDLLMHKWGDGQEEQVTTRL
Protocol: Full-length, non-tagged hTRPC1 and hTRPC5 constructs are used for calcium flux assays. hTRPC5 is transfected alone or co-transfected with hTRPC1 into HEK293T cells (70–80% confluency) using PEI as the transfection reagent.
The culture medium is removed, and 100 µL of loading buffer (Calcium 5 Assay Kit) is added to each well, followed by a 1-h incubation at 37 °C in 5% CO2. Five minutes before measurement, molecules are added to each well at a final concentration of 10 µM under light-sensitive conditions.

mCPP-induced anxiety [3] = assay: Elevated plus maze (EPM) test, mCPP-induced anxiety model; settings: mCPP mice; single dose; JD03-02 3, 10, 30 mg/kg i.g.
[4] = tested on: TRPC1 or TRPC5 mutations within the TRPC1/5 heteromer; assay: Whole-cell patch-clamp, inhibition of TRPC1/5 heteromers carrying TRPC1 or TRPC5 mutations (e.g. TRPC1 F595A); format: cell-based; settings: TRPC1 F595A/C5 vs WT TRPC1/5
Description: The full-length hTRPC5 or truncated mTRPC5, and the full-length hTRPC1 constructs was respectively co-transfected in a plasmid ration 1:3 (w/w) into HEK293T cells (from the ATCC). As previously described, a mCherry was inserted into TRPC5 constructs and a GFP was inserted at the C terminus of TRPC1. Therefore, Cells with red and green fluorescence were selected for whole-cell patch recordings (HEKA EPC10 amplifier, […] software (https://www.heka.com/downloads/downloads_main.html#down_patchmaster)). A 1-s ramp protocol from −100 to +100 mV was applied at a frequency of 0.2 Hz. Signals were sampled at 50 kHz and filtered at 2.9 kHz. The pipette solution contained 130 mM CsCl, 1 mM MgCl2, 5.7 mM CaCl2, 10 mM EGTA, and 10 mM Hepes (calculated free Ca^2+, 200 nM), and the pH was titrated to 7.2 using CsOH[40]. The standard bath solution contained 140 mM NaCl, 5 mM KCl, 1 mM MgCl2, 2 mM CaCl2, 10 mM Hepes, and 10 mM D-glucose, and the pH was adjusted to 7.4 with NaOH (1 M). The recording chamber (150 μL) was perfused at a rate of ~2 mL/min. All recordings were performed at room temperature. In this experiment, TRPC5 homomers or TRPC1/5 heteromers were activated using the TRPC1/4/5 agonist Englerin A (EA).
Error bars represent the standard error of the mean (SEM, n = 6 independent
Error bars represent the standard error of the
110 mean (SEM, n = 5 independent cells).

mCPP-induced anxiety [5] = assay: Open-field test (OFT), mCPP-induced anxiety model; settings: single dose
[6] = C57BL/6J, mouse, in vivo, iv, 2 mg/kg, mouse 2mg/kg i.v., Mean
[7] = C57BL/6J, mouse, in vivo, iv, 2 mg/kg, mouse 2mg/kg i.v., individual animals 4-6
[8] = C57BL/6J, mouse, in vivo, po, 10 mg/kg, mouse 10mg/kg p.o., Mean
[9] = C57BL/6J, mouse, in vivo, po, 10 mg/kg, mouse 10mg/kg p.o., individual animals 1-3
[10] = mouse 2mg/kg i.v., individual animals 4-6, listed as JD03-02, 2 mg/kg
[11] = mouse 10mg/kg p.o., individual animals 1-3, listed as JD03-02, 10 mg/kg

CN(C)CCCCn1c(=O)c2c(nc(Oc3cccc(Cl)c3)n2Cc2ccc(Cl)cc2)n(C)c1=O [H08]
effect on CCK-4-induced hyperexcitability of lateral amygdala neurons (in words) [1]: selectively suppresses CCK-4-induced hyperexcitability
Tmax ([2]; C57BL/6J, in vivo, po, mouse 10mg/kg p.o., Mean): 1 h
AUC(0-t) [2, 6]: 478 ng·h/mL
half-life [2, 6]: 3.09 h
AUC(0-inf) [2, 6]: 519 ng·h/mL
clearance [2, 6]: 65.9 mL/min/kg
MRT inf [2, 6]: 3.94 h
AUC(0-t) [2, 7]: 385 ng·h/mL
half-life [2, 7]: 3.52 h
AUC(0-inf) [2, 7]: 469 ng·h/mL
clearance [2, 7]: 71 mL/min/kg
MRT inf [2, 7]: 4.46 h
AUC(0-t) [2, 8]: 1190 ng·h/mL
half-life [2, 8]: 2.9 h
AUC(0-inf) [2, 8]: 1220 ng·h/mL
Cmax ([2]; C57BL/6J, mouse, in vivo, po, 10 mg/kg, mouse 10mg/kg p.o., Mean, read-out: Cmax): 201 ng/mL
MRT inf [2, 8]: 5.27 h
half-life [2, 9]: 2.86 h
AUC(0-inf) [2, 9]: 1300 ng·h/mL
Cmax ([2]; C57BL/6J, mouse, in vivo, po, 10 mg/kg, mouse 10mg/kg p.o., individual animals 1-3, read-out: Cmax): 256 ng/mL
MRT inf [2, 9]: 4.73 h
Kp ([2]; brain and heart plasma, po, 10 mg/kg, mouse p.o., read-out: AUClast brain/AUClast heart plasma (brain-to-plasma ratio, B/P)): 0.67
Kp at 4 h ([2]; brain and heart plasma, po, 10 mg/kg, mouse p.o., read-out: Clast brain/Cmax heart plasma): 0.83
bioavailability ([2]; in vivo, oral, mouse 10mg/kg p.o. vs 2mg/kg i.v., read-out: F (oral bioavailability)): 49.8%
Vss_obs ([2]; mouse 2mg/kg i.v., Mean): 15.296 L/kg
AUCINF_obs [2, 10]: 447 ng·h/mL and 640 ng·h/mL
AUClast [2, 10]: 416 ng·h/mL and 634 ng·h/mL
CL_obs [2, 10]: 74.6 mL/min/kg and 52.1 mL/min/kg
MRTINF_obs [2, 10]: 2.895 h and 4.460 h
T1/2 [2, 10]: 2.06 h and 3.69 h
Vss_obs [2, 10]: 18.984 L/kg and 12.955 L/kg and 13.949 L/kg
AUCINF_obs [2, 11]: 1549 ng·h/mL and 800 ng·h/mL
AUClast [2, 11]: 1294 ng·h/mL and 1532 ng·h/mL and 746 ng·h/mL
Cmax [2, 11]: 205 ng/mL and 143 ng/mL
MRTINF_obs [2, 11]: 6.50 h and 4.58 h
T1/2 [2, 11]: 3.35 h and 2.48 h
AUClast ([2]; mouse p.o., brain): 524 ng·h/g
Cmax ([2]; mouse, brain, po, 10 mg/kg, mouse p.o., brain, read-out: Cmax): 265 ng/g
concentration at 4 h ([2]; mouse, brain, single 10 mg/kg oral dose, at 4 hours): ~513 nM
AUC(0-t) ([2]; mouse, heart plasma, po, 10 mg/kg, mouse p.o.): 778 ng·h/mL
Cmax ([2]; mouse, heart plasma, po, 10 mg/kg, mouse p.o., heart plasma, read-out: Cmax): 318 ng/mL
AUC(0-t) ([2]; mouse, portal vein plasma, po, 10 mg/kg, mouse p.o.): 1330 ng·h/mL
Cmax ([2]; mouse, portal vein plasma, po, 10 mg/kg, mouse p.o., portal vein plasma, read-out: Cmax): 493 ng/mL
Tmax ([2]; po, 10 mg/kg, mouse p.o., brain): 4 h
Tmax ([2]; po, 10 mg/kg, mouse p.o., heart plasma): 4 h
Tmax ([2]; po, 10 mg/kg, mouse p.o., portal vein plasma): 0.25 h
inhibition of TRPC1/5 heteromers (in words) (TRPC1/5): strong inhibition
EPM open arm entries and time in open arms (mCPP-induced anxiety [3]): increasing numbers of open arm entries and time spent in open arms
increase in IC50 on alanine substitution of F595 in TRPC1 [4]: ~ 100 fold
OFT central zone entries and time in central zone (mCPP-induced anxiety [5]; mCPP mice): enhancing numbers of central zone entries and time spent in the central zone
OFT total distance traveled (mCPP-induced anxiety [5]; mCPP-induced anxiety-like mice): no significant effect
